Results reported in the NIST ThermoML archive (doi:10.1016/j.jct.2015.09.018).
± gives the expanded uncertainty stated by the source.

Conditions: 101.33 kPa, Crystal 3; for molar entropy: relaxation calorimeter

[O-2].[O-2].[Ti+4] [titanium(IV) oxide]
Conditions | molar entropy [J/K/mol]
0.5 K | 0.000413 ± 3.9e-05
1 K | 0.000882 ± 7.5e-05
1.5 K | 0.00146 ± 0.00012
2 K | 0.00221 ± 0.00018
2.5 K | 0.00316 ± 0.00026
3 K | 0.00439 ± 0.00036
3.5 K | 0.00591 ± 0.00048
4 K | 0.00779 ± 0.00063
4.5 K | 0.01 ± 0.0008
5 K | 0.0127 ± 0.001
5.5 K | 0.0158 ± 0.0013
6 K | 0.0194 ± 0.0016
6.5 K | 0.0234 ± 0.0019
7 K | 0.0279 ± 0.0022
7.5 K | 0.0328 ± 0.0026
8 K | 0.0383 ± 0.0031
8.5 K | 0.0442 ± 0.0035
9 K | 0.0506 ± 0.0041
9.5 K | 0.0575 ± 0.0046
10 K | 0.0649 ± 0.0052
11 K | 0.081 ± 0.0065
12 K | 0.0989 ± 0.0079
13 K | 0.119 ± 0.01
14 K | 0.141 ± 0.011
15 K | 0.164 ± 0.013
16 K | 0.19 ± 0.015
17 K | 0.218 ± 0.017
18 K | 0.248 ± 0.02
19 K | 0.28 ± 0.022
20 K | 0.314 ± 0.025
25 K | 0.524 ± 0.042
30 K | 0.798 ± 0.064
35 K | 1.14 ± 0.09
40 K | 1.55 ± 0.12
45 K | 2.02 ± 0.16
50 K | 2.55 ± 0.2
55 K | 3.15 ± 0.25
60 K | 3.8 ± 0.3
65 K | 4.5 ± 0.36
70 K | 5.25 ± 0.42
75 K | 6.04 ± 0.48
80 K | 6.87 ± 0.55
85 K | 7.74 ± 0.62
90 K | 8.65 ± 0.69
95 K | 9.59 ± 0.77
100 K | 10.56 ± 0.85
110 K | 12.56 ± 1
120 K | 14.64 ± 1.2
130 K | 16.77 ± 1.3
140 K | 18.94 ± 1.5
150 K | 21.13 ± 1.7
160 K | 23.34 ± 1.9
170 K | 25.56 ± 2
180 K | 27.77 ± 2.2
190 K | 29.99 ± 2.4
200 K | 32.19 ± 2.6
210 K | 34.38 ± 2.8
220 K | 36.55 ± 2.9
230 K | 38.69 ± 3.1
240 K | 40.82 ± 3.3
250 K | 42.91 ± 3.4
260 K | 44.98 ± 3.6
270 K | 47.03 ± 3.8
273.15 K | 47.66 ± 3.8
280 K | 49.04 ± 3.9
290 K | 51.02 ± 4.1
298.15 K | 52.61 ± 4.2
300 K | 52.97 ± 4.2
305 K | 53.94 ± 4.3

Conditions | mass density [kg/m3]
298.15 K, X-ray diffraction | 4130 ± 20
